Data on 15 compounds can be found in US20220227760A1, “COMPOUNDS AND COMPOSITIONS FOR TREATING CONDITIONS ASSOCIATED WITH STING ACTIVITY” (IFM Due, Inc., priority 2019, published 2022).

The structures appear in SMILES notation. pEC50: −log10 of the molar value. Some results are limits rather than exact numbers.

The target of the first assay is T1, Human STING (Homo sapiens, UniProt Q86WV6, G230A/H232R/R293Q/R71H).
T1 construct: host or cells: THP1-Dual KO-IFNAR2 cells
T1 sequence (Q86WV6 whole entry R71H/G230A/H232R/R293Q): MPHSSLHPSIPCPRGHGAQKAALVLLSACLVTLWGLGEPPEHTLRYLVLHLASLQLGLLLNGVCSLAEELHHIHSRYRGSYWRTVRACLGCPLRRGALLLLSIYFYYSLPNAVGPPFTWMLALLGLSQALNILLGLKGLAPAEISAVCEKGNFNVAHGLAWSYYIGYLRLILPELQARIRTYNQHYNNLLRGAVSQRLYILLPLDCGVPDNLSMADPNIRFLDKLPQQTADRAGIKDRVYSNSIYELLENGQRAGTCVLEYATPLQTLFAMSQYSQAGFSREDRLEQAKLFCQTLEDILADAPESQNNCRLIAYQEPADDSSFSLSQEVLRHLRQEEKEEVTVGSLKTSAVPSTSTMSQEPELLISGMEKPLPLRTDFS
Briefly: STING reporter assay (luciferase) in THP1-Dual KO-IFNAR2 cells stimulated with 2′3′cGAMP. Format: cell-based. To be noted: 15 μM 2′3′cGAMP, 24 h, class symbols. How it is done: STING pathway activation by the compounds described herein is measured using THP1 Dual™ cells (KO-IFNAR2).
THP1-Dual™ KO-IFNAR2 Cells (obtained from invivogen) are maintained in RPMI, 10% FCS, 5 ml P/S, 2 mM L-glut, 10 mM Hepes, and 1 mM sodium pyruvate. Compounds are spotted in empty 384 well tissue culture plates (Greiner 781182) by Echo for a final concentration of 0.0017-100 μM. Cells are plated into the TC plates at 40 μL per well, 2×10E6 cells/mL. For activation with STING ligand, 2′3′cGAMP (MW 718.38, obtained from Invivogen), is prepared in Optimem media.
The following solutions are prepared for each 1×384 plate: • Solution A: 2 mL Optimem with one of the following stimuli: • 60 uL of 10 mM 2′3′cGAMP ->150 μM stock • Solution B: 2 mL Optimem with 60 μL Lipofectamine 2000->Incubate 5 min at RT
2 mL of solution A and 2 ml Solution B is mixed and incubated for 20 min at room temperature (RT). 20 uL of transfection solution (A+B) is added on top of the plated cells, with a final 2′3′cGAMP concentration of 15 μM. The plates are then centrifuged immediately at 340 g for 1 minute, after which they are incubated at 37° C., 5% CO2, >98% humidity for 24 h. Luciferase reporter activity is then measured. EC50 values were calculated by using standard methods known in the art.
Luciferase reporter assay: 10 μL of supernatant from the assay is transferred to white 384-plate with flat bottom and squared wells. one pouch of QUANTI-Luc™ Plus is dissolved in 25 mL of water. 100 μL of QLC Stabilizer per 25 mL of QUANTI-Luc™ Plus solution was added. 50 μL of QUANTI-Luc™ Plus/QLC solution per well is then added. Luminescence is measured on a Platereader (e.g., Spectramax I3X (Molecular Devices GF3637001)).
Luciferase reporter activity is then measured. EC50 values are calculated by using standard methods known in the art.
(In general: Reporter assays use an easily measured gene product as a stand-in for the process of interest.)
A word on the pEC50: it is the EC50 on a negative log10 scale, so that one unit is a factor of ten. For the compound `Fc1cnc2[nH]cc(Nc3ncc(-c4ccccc4)o3)c2c1` [Compound 101, N-[5-fluoro-1H-pyrrolo[2,3-b]pyridin-3-yl]-5-phenyl-1,3-oxazol-2-amine], the pEC50 is 6.00 to 6.70.
On the same count and under the same terms, the figure for `c1ccc(-c2ccnc(Nc3c[nH]c4cccnc34)c2)cc1` [Compound 102, N-(4-phenylpyridin-2-yl)-1H-pyrrolo[3,2-b]pyridin-3-amine] is 4.52 to 5.30; for `c1ccc2sc(Nc3c[nH]c4ccccc34)nc2c1` [Compound 103] it is 5.30 to 6.00; for `c1ccc(-c2ccnc(Nc3c[nH]c4ccccc34)n2)cc1` [Compound 158] it is 5.30 to 6.00.
In the case of `c1ccc2nc(Nc3c[nH]c4ccccc34)ncc2c1` [Compound 159], the pEC50 was 4.52 to 5.30.
On the same count and under the same terms, the figure for `O=c1cc(-c2ccccc2)[nH]c(Nc2c[nH]c3cccnc23)n1` [Compound 160] is 5.30 to 6.00; for `Fc1cc2[nH]cc(Nc3ccc4cc(C(F)(F)F)ccc4n3)c2cc1F` [Compound 161, N-(5,6-difluoro-1H-indol-3-yl)-6-(trifluoromethyl)quinolin-2-amine] it is 5.30 to 6.00.
Regarding `Fc1cc2[nH]cc(Nc3ccc4ccc(C(F)(F)F)cc4n3)c2cc1F` [Compound 162], the pEC50 was 6.00 to 6.70.
On the same count and under the same terms, the figure for `O=c1cc(-c2ccccc2)[nH]c(Nc2c[nH]c3cc(F)c(F)cc23)n1` [Compound 163, 2-[(5,6-difluoro-1H-indol-3-yl)amino]-6-phenyl-1H-pyrimidin-4-one] is 4.52 to 5.30; for `c1ccc(-c2cnc(Nc3c[nH]c4ccccc34)s2)cc1` [Compound 165] it is 6.00 to 6.70.
In turn, `c1ccc2cc(Nc3c[nH]c4ccccc34)ncc2c1` [Compound 166] had a pEC50 of 5.30 to 6.00.
As to `c1ccc2nc(Nc3c[nH]c4ccccc34)ccc2c1` [Compound 167], the negative logarithm of the EC50 (pEC50) was 5.30 to 6.00.
`c1ccc(-c2ccc(Nc3c[nH]c4cccnc34)nc2)cc1` [Compound 169] had a pEC50 of 4.52 to 5.30.

The same assay, now with this note: 15 μM 2′3′cGAMP, 24 h, numeric bounds.
For `O=c1cc[nH]c(Nc2c[nH]c3cc(F)c(F)cc23)n1` [Compound 164], the negative-log EC50 (pEC50) is under 4.52.
In the case of `O=c1nc(Nc2c[nH]c3cccnc23)ccn1-c1ccccc1` [Compound 168], the pEC50 is under 4.00.
